# Experimental data reported in paper PMC9572083, “Hybrids of 1,4-Quinone with Quinoline Derivatives: Synthesis, Biological Activity, and Molecular Docking with DT-Diaphorase (NQO1)” (Molecules, 2022).
# How the values were obtained:
# [1] = test system: MDA-MB-231 cells; assay: Cytotoxic activity, WST-1 assay, breast cancer MDA-MB-231; format: cell-based, human; conditions: for SI (IC50 HFF-1/IC50 cancer line) MDA-MB-231: HFF-1 vs MDA-MB-231; for IC50: Homo sapiens, breast cancer MDA-MB-231, 72 h, WST-1
# Source text: (§1) Anticancer activity of compounds 11–14 was designated against following human cancer cell lines: melanoma (Colo-829), ovarian cancer (SK-OV-3), breast cancer (MDA-MB-231, T47D and MCF-7), lung cancer (A549) and normal fibroblasts (HFF-1). As a reference substance, the doxorubicin was used. The results are presented in Table 1 as IC50, where IC50 means the concentration of tested compounds (µM) causing the growth inhibition of 50% for given tumor cells. The negative value (Neg.) means that the IC50 is higher than 30 µM. Selectivity index (SI) as the ratio of the IC50 for normal fibroblast (HFF-1) to IC50 of the corresponding cell line, is presented in Table S2.
# (§2) Compounds 7–14 and doxorubicin were tested for cytotoxic activity in vitro against panel of human cancer cell lines: melanoma (Colo-829, ATCC, Rockville, MD, USA), ovarian cancer (SK-OV-3, ATCC, Rockville, MD, USA), breast cancer (T47D, MCF-7, and MDA-MB-231, ATCC, Rockville, MD, USA) and lung cancer (A549, ATCC, Rockville, MD, USA). The cultured cells were kept at 37 °C and 5% CO2. The cells were seeded (5 × 10^4 cells/well/[…] DMEM supplemented with 10% FCS and streptomycin/penicillin) using 96-well plates (Nunc Thermo Fisher Scientific, Waltham, MA, USA). The tested compounds 7–14 with the concentration of 1–100 µg/mL DMSO were inducted with the cancer cells for 72 h. The WST-1-formazan (proliferation reagent WST-1 assay, Roche Diagnostics, Mannheim, Germany) was detected using a microplate reader at 450 nm. Results were expressed as a mean value of at least three independent experiments performed in triplicate.
# [2] = test system: T47D cells; assay: Cytotoxic activity, WST-1 assay, breast cancer T47D; format: cell-based, human; conditions: for SI (IC50 HFF-1/IC50 cancer line) T47D: HFF-1 vs T47D; for IC50: Homo sapiens, breast cancer T47D, 72 h, WST-1
# Source text: as §1, §2
# [3] = test system: HFF-1 cells; assay: Cytotoxic activity, WST-1 assay, normal fibroblasts HFF-1; format: cell-based; conditions: Homo sapiens, normal fibroblasts HFF-1, 72 h
# Source text: as §1, §2
# [4] = test system: A549 cells; assay: Cytotoxic activity, WST-1 assay, lung cancer A549; format: cell-based, human; conditions: for SI (IC50 HFF-1/IC50 cancer line) A549: HFF-1 vs A549; for IC50: Homo sapiens, lung cancer A549, 72 h, WST-1
# Source text: as §1, §2
# [5] = test system: Colo-829 cells; assay: Cytotoxic activity, WST-1 assay, melanoma Colo-829; format: cell-based, human; conditions: for SI (IC50 HFF-1/IC50 cancer line) Colo-829: HFF-1 vs Colo-829; for IC50: Homo sapiens, melanoma Colo-829, 72 h, WST-1
# Source text: as §1, §2
# [6] = molecular target: T1, NQO1 (DT-diaphorase, EC 1.6.5.5, human recombinant) (Homo sapiens, UniProt P15559); assay: NQO1 substrate NADPH recycling enzymatic assay; format: biochemical; conditions: for NQO1 activity (enzymatic conversion rate): compound 10 µmol/L, pH 7.4, 25 °C, absorbance at 340 nm
# T1 construct: purchased Sigma-Aldrich
# Procedure: The interaction between 1,4-quinone moiety of hybrid and NQO1 protein leads to reduction in quinone to hydroquinone and production of reactive oxide form (ROS). According to a literature method, the ability of hybrids 11–14 and streptonigrin (ST) to be a substrate for NQO1 was examined by measuring the oxidation of NADPH to NADP^+ [29, 32].
# Compounds 11–14 (10 µmol/L) were tested as NQO1 substrates using the NADPH recycling assay according to the literature method. The recombinant NQO1 (DT-diaphorase, EC 1.6.5.5, human recombinant, Sigma-Aldrich) was used, and the oxidation of NADPH to NADP^+ was measured at the absorption wavelength of 340 nm on the BioTek 800TS microplate reader (BioKom, Janki, Poland). Compounds were dissolved in dimethyl sulfoxide (2 µL) and added to the 96-well plate. The NQO1 protein (1.4 µg/mL) in 50 mmol/L potassium phosphate buffer (pH = 7.4) was added to each well (198 µL) (Nunc Thermo Fisher Scientific, Waltham, MA, USA). Once the 96-well plate was filled with the assay solutions, except the NADPH solution, it was placed into the instrument and left to sit for 5 min before starting the measurements. The enzymatic reaction was initiated by automatically dispensing the NADPH solution into the wells, and data were recorded at 10 s intervals for 5 min at 25 °C. The linear part of the absorbance vs. time graphs (the first 20 s to 1 min) was fitted, and the slopes were calculated. NADPH oxidation rates were compared with reactions lacking the tested compound. Initial velocities were calculated, and data were expressed as µmol NADPH/µmol NQO1/min. All reactions were carried out at least in triplicate.
# [7] = test system: SK-OV-3 cells; assay: Cytotoxic activity, WST-1 assay, ovarian cancer SK-OV-3; format: cell-based, human; conditions: for SI (IC50 HFF-1/IC50 cancer line) SK-OV-3: HFF-1 vs SK-OV-3; for IC50: Homo sapiens, ovarian cancer SK-OV-3, 72 h, WST-1
# Source text: as §1, §2
# [8] = test system: MCF-7 cells; assay: Cytotoxic activity, WST-1 assay, breast cancer MCF-7; format: cell-based, human; conditions: for SI (IC50 HFF-1/IC50 cancer line) MCF-7: HFF-1 vs MCF-7; for IC50: Homo sapiens, MCF7, breast cancer MCF-7, 72 h, WST-1
# Source text: as §1, §2
# T1 sequence (P15559 whole entry): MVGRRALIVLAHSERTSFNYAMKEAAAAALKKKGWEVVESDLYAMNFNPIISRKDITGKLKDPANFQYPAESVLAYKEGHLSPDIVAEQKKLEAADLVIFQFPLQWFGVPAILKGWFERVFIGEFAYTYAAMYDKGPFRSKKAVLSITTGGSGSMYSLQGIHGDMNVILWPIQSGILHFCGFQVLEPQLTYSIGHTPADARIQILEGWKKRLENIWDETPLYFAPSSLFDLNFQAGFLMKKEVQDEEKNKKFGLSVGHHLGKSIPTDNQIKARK
SMILES,SI (IC50 HFF-1/IC50 cancer line) MDA-MB-231 [1],IC50 [1],SI (IC50 HFF-1/IC50 cancer line) T47D [2],IC50 [2],IC50 [3],SI (IC50 HFF-1/IC50 cancer line) A549 [4],IC50 [4],SI (IC50 HFF-1/IC50 cancer line) Colo-829 [5],IC50 [5],"Enzymatic conversion rate relative to the 2-methyl-5,8-quinolinedione analogue ([6]; 11c vs 12c, 11e vs 12e)",NQO1 activity (enzymatic conversion rate) [6],SI (IC50 HFF-1/IC50 cancer line) SK-OV-3 [7],IC50 [7],SI (IC50 HFF-1/IC50 cancer line) MCF-7 [8],IC50 [8],Activity against MCF-7 relative to A549 ([8]; fold more active against MCF-7 than A549),NQO1 activity (enzymatic conversion rate) ([6]; listed as streptonigrin)
"O=C1C(Cl)=C(Oc2cccc3ccc(N4CCCC4)nc23)C(=O)c2ncccc21 [Compound 11e, 6-chloro-7-{[2-(pyrrolidin-1-yl)quinolin-8-yl]oxy}quinoline-5,8-dione]",5.81,1970 ± 130 nM,0.55,20800 ± 1030 nM,11400 ± 690 nM,0.94,12100 ± 1060 nM,0.76,15000 ± 320 nM,1.8 times,1082 ± 51 µmol NADPH/µmol NQO1/min,6.66,1720 ± 90 nM,5.64,2030 ± 30 nM,~6 times,
"O=C1C(Cl)=C(Oc2cccc3ccc(N4CCOCC4)nc23)C(=O)c2ncccc21 [Compound 11f, 6-chloro-7-{[2-(morpholin-4-yl)quinolin-8-yl]oxy}quinoline-5,8-dione]",1.86,13800 ± 1090 nM,1.38,18600 ± 620 nM,25640 ± 190 nM,2.03,12600 ± 820 nM,1.83,14000 ± 1160 nM,,113 ± 19 µmol NADPH/µmol NQO1/min,2.35,10900 ± 480 nM,1.58,16210 ± 120 nM,,
"COC1=C(N)C(=O)c2nc(-c3nc(C(=O)O)c(C)c(-c4ccc(OC)c(OC)c4O)c3N)ccc2C1=O [ST, streptonigrin, reference compound]",,,,,,,,,,,725 ± 84 µmol NADPH/µmol NQO1/min,,,,,,725 µmol NADPH/µmol NQO1/min
"O=C1C(Cl)=C(Oc2cccc3ccc(N4CCOCC4)nc23)C(=O)c2cnccc21 [Compound 13f, 6-chloro-7-{[2-(morpholin-4-yl)quinolin-8-yl]oxy}isoquinoline-5,8-dione]",141.46,130 ± 50 nM,8.55,2150 ± 60 nM,18400 ± 350 nM,15.07,1220 ± 80 nM,8.76,2100 ± 60 nM,,143 ± 26 µmol NADPH/µmol NQO1/min,14.95,1230 ± 80 nM,17.85,1030 ± 190 nM,,
"COc1cccc2c1C(=O)c1c(O)c3c(c(O)c1C2=O)C[C@@](O)(C(=O)CO)C[C@@H]3O[C@H]1C[C@H](N)[C@H](O)[C@H](C)O1 [Doxorubicin, doxorubicin, reference compound]",0.19,640 ± 60 nM,3.00,40 ± 10 nM,120 ± 30 nM,6.00,20 ± 10 nM,2.40,50 ± 10 nM,,,0.80,150 ± 30 nM,1.00,120 ± 50 nM,,
